Experimental data published in patent US9840513B2 (AbbVie S.à.r.l., priority 2015, dated 2017).

Columns and labels:
[1] = molecular target: T1, F508delCFTR cell surface expression in CFBE41o-F508delCFTR-HRP cells (Homo sapiens, UniProt P13569, DEL508-508); assay: Cell Surface Expression-Horse Radish Peroxidase (CSE-HRP) Assay; assay type: cell-based; details: for EC50: CFBE41o-F508delCFTR-HRP cells, 18-24 hours at 33° C., 8-point curve, highest concentration 20 μM; for Maximum % activity (%): maximum at any tested concentration, normalized to on-plate positive control (3 μM)
T1 construct: fused on or other part: Horseradish peroxidase (HRP) reporter inserted in the fourth exofacial (extracellular) loop of CFTR; expression is doxycycline-inducible
T1 sequence (P13569 with tags, fused parts or gaps DEL508-508 limits assumed): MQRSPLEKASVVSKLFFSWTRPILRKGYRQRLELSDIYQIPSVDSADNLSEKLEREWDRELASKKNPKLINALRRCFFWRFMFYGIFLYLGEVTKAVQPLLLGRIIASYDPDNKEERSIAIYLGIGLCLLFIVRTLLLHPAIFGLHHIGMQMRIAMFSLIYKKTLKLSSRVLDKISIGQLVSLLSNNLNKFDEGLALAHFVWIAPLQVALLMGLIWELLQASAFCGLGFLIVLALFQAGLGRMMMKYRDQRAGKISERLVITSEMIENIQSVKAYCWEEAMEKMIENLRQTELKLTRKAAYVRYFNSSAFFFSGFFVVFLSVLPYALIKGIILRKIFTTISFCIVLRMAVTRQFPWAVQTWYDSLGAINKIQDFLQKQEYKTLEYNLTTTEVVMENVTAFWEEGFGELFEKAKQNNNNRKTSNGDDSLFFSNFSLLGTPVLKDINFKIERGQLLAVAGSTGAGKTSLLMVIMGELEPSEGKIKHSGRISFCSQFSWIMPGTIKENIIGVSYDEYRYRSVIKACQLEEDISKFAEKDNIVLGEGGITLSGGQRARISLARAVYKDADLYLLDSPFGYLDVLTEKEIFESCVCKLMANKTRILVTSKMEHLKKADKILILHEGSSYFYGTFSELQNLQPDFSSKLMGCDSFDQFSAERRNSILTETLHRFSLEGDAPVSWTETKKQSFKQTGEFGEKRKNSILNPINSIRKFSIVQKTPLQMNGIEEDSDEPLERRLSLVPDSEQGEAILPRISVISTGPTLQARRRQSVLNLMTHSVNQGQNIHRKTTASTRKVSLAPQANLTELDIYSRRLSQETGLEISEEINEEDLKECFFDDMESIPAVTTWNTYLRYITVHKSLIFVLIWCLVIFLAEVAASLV
T1 sequence (P13569 919-1480 limits assumed, stated change not applied): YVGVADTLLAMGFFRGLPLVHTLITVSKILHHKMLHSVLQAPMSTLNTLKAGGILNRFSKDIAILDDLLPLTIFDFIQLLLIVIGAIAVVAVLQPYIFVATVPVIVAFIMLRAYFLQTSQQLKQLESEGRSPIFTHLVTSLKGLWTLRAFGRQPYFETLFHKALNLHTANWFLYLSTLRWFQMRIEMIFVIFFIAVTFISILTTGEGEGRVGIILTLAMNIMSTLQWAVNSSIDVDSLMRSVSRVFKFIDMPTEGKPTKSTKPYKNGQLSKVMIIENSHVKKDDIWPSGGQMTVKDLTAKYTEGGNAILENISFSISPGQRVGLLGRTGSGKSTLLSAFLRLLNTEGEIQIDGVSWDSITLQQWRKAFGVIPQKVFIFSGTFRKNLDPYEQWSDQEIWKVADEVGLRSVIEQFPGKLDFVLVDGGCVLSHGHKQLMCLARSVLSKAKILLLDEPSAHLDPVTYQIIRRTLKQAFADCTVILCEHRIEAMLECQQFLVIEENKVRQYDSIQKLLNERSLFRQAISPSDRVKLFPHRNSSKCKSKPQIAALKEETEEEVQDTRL
Outline: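 Correctors incubated 18-24 h at 33 °C on doxycycline-induced (0.5 μg/mL, 72 h) CFBE41o-F508delCFTR-HRP cells, 3-fold series from 20 μM. After DPBS washes, luminol luminescence read; activity expressed relative to DMSO and a 3 μM positive control, EC50 fitted from triplicate plates.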

[2] = molecular target: T2, F508delCFTR in primary hBE cells with F508del/F508del CFTR mutation (Homo sapiens, UniProt P13569, DEL508-508); assay: Transepithelial Clamp Circuit on Human Bronchial Epithelial Cells Conductance Assay (hBE-TECC); assay type: cell-based; details: for EC50: primary hBE cells F508del/F508del, 18-24 hours at 37° C., equivalent short circuit current, 6 concentrations
T2 construct: cells isolated from CF patients with the homozygous mutation; endogenous in cells; host or cells: primary human bronchial epithelial (hBE) cells from F508del/F508del CF patients
T2 sequence (P13569 with tags, fused parts or gaps DEL508-508): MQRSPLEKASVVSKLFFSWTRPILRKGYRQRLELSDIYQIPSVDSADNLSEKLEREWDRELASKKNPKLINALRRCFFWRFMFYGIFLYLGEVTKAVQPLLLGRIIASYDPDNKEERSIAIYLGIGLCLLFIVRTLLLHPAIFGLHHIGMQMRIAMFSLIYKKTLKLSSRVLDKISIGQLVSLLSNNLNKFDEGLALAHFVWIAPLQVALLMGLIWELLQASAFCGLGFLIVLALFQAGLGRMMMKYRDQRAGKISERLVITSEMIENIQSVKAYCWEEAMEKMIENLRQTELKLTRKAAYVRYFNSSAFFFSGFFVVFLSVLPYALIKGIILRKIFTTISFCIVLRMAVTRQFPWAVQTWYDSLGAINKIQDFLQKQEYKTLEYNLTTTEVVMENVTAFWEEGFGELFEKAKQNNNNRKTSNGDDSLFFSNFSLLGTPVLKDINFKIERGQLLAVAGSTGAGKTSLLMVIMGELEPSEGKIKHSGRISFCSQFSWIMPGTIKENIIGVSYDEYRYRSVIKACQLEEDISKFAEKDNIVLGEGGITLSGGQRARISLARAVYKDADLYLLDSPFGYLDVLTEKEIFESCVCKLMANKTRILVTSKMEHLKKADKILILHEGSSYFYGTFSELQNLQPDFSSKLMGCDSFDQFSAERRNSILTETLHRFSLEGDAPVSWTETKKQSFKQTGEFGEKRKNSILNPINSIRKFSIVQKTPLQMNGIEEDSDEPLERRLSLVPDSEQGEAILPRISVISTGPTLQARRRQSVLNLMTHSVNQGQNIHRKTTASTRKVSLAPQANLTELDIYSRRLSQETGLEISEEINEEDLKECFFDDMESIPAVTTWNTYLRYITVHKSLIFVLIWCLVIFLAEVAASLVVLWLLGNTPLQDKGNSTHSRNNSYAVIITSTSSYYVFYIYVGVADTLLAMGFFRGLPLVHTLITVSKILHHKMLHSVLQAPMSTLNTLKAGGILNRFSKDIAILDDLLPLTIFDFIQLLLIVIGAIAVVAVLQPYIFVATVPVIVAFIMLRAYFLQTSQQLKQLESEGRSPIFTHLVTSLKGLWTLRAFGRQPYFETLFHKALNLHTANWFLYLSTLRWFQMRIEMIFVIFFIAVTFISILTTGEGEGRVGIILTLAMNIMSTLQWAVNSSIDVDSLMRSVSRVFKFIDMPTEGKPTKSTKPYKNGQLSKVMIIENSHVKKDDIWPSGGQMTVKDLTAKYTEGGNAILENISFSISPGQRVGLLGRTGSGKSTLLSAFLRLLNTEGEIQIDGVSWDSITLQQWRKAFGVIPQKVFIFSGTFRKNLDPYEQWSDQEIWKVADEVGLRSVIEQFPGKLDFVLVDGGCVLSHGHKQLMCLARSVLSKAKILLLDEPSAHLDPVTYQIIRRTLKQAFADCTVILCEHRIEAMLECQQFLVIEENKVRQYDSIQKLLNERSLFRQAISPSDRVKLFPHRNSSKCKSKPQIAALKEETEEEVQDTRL
Outline: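 Primary F508del/F508del hBE cells grown 35 days at air-liquid interface, treated basolaterally with correctors 18-24 h at 37° C. Ieq (Vt/Rt) at 36.5° C, pH 7.4, after benzamil, forskolin 10 μM, control potentiator, bumetanide; 6 concentrations normalized to DMSO and 3 μM positive-control corrector, EC50 by 4-parameter fit.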

[3] = relative to positive control (3 μM) coupled with control potentiator

Q: With `C[C@]1(C(=O)Nc2cc(-c3ccccc3)nn(C[C@@H](O)CO)c2=O)COc2cc3c(cc21)OC(F)(F)O3` [Example 27, (7R)—N-{2-[(2R)-2,3-dihydroxypropyl]-3-oxo-6-phenyl-2,3-dihydropyridazin-4-yl}-2,2-difluoro-7-methyl-6,7-dihydro-2H-furo[2,3-f][1,3]benzodioxole-7-carboxamide] as the compound, how does the EC50 [1] read?
A: The EC50 was 810 nM.

Q: What about the “Maximum % activity (%)” value [1] of the same compound?
A: Its value is 82%.

Q: What about the “Maximum % activity (%)” value ([2]; testing concentration 3 μM) of the same compound?
A: Its value is 54%.

Q: Which results are given for `COc1ccc2c(c1)O[C@@H](c1cnc(N3C[C@@H](O)[C@H](O)C3)cn1)C[C@H]2NC(=O)[C@@]1(C)COc2cc3c(cc21)OC(F)(F)O3` [Example 250, (7R)—N-[(2R,4R)-2-{5-[(3R,4R)-3,4-dihydroxypyrrolidin-1-yl]pyrazin-2-yl}-7-methoxy-3,4-dihydro-2H-1-benzopyran-4-yl]-2,2-difluoro-7-methyl-6,7-dihydro-2H-furo[2,3-f][1,3]benzodioxole-7-carboxamide]?
A: EC50 [1]: 20 nM; Maximum % activity (%) [1]: 135%; EC50 [2]: 1 nM; Maximum % activity (%) [2, 3]: 95%

Q: Which EC50 [1] does the source give for `C[C@]1(C(=O)N[C@@H]2C[C@H]([C@H]3CC[C@H](C(=O)O)CC3)Oc3cc(OC(F)F)ccc32)COc2cc3c(cc21)OC(F)(F)O3` [Example 160, trans-4-[(2R,4R)-7-(difluoromethoxy)-4-{[(7R)-2,2-difluoro-7-methyl-6,7-dihydro-2H-furo[2,3-f][1,3]benzodioxole-7-carbonyl]amino}-3,4-dihydro-2H-1-benzopyran-2-yl]cyclohexane-1-carboxylic acid] here?
A: The EC50 was 44 nM.

Q: And the “Maximum % activity (%)” value [1]?
A: Its value is 136%.

Q: And the EC50 [2]?
A: Its EC50 is 5 nM.

Q: And the “Maximum % activity (%)” value [2, 3]?
A: The value was 85%.

Q: With `CC(C)(CO)c1nc2cc(NC(=O)[C@@]3(C)COc4cc5c(cc43)OC(F)(F)O5)c(F)cc2n1C[C@@H](O)CO` [Example 137, (7R)—N-{1-[(2R)-2,3-dihydroxypropyl]-6-fluoro-2-(1-hydroxy-2-methylpropan-2-yl)-1H-benzimidazol-5-yl}-2,2-difluoro-7-methyl-6,7-dihydro-2H-furo[2,3-f][1,3]benzodioxole-7-carboxamide] as the compound, how does the EC50 [1] read?
A: The EC50 was 2060 nM.

Q: And the “Maximum % activity (%)” value [1]?
A: The value was 72%.

Q: And the EC50 [2]?
A: The EC50 was 2580 nM.

Q: And the “Maximum % activity (%)” value [2, 3]?
A: Its value is 67%.

Q: Which EC50 [1] does the source give for `CC1(C(=O)N[C@@H]2C[C@H](c3cccc(C(=O)O)c3)Oc3ccccc32)COc2cc3c(cc21)OC(F)(F)O3` (stereo partly drawn) [Example 21, 3-{(2R,4R)-4-[(2,2-difluoro-7-methyl-6,7-dihydro-2H-furo[2,3-f][1,3]benzodioxole-7-carbonyl)amino]-3,4-dihydro-2H-1-benzopyran-2-yl}benzoic acid] here?
A: The EC50 was 1260 nM.

Q: What about the “Maximum % activity (%)” value [1] of the same compound?
A: The value was 162%.

Q: What about the EC50 [2] of the same compound?
A: The EC50 was 468 nM.

Q: And the “Maximum % activity (%)” value [2, 3]?
A: Its value is 94%.

Q: How did the EC50 [1] turn out when `CC1(C(=O)Nc2cc(C3CC3)nn(-c3ccc(C(=O)O)cc3)c2=O)COc2cc3c(cc21)OC(F)(F)O3` (centres unmarked) [Example 30, 4-{3-cyclopropyl-5-[(2,2-difluoro-7-methyl-6,7-dihydro-2H-furo[2,3-f][1,3]benzodioxole-7-carbonyl)amino]-6-oxopyridazin-1(614)-yl}benzoic acid] was run?
A: Its EC50 is 980 nM.

Q: What about the “Maximum % activity (%)” value [1] of the same compound?
A: Its value is 122%.

Q: And the “Maximum % activity (%)” value ([2]; testing concentration 10 μM)?
A: Its value is 47%.

Q: How did the EC50 [1] turn out when `C[C@]1(C(=O)N[C@@H]2C[C@H](c3ccc(C(=O)O)cn3)Oc3cc(OC(F)F)ccc32)COc2cc3c(cc21)OC(F)(F)O3` [Example 151, 6-[(2R,4R)-7-(difluoromethoxy)-4-{[(7R)-2,2-difluoro-7-methyl-6,7-dihydro-2H-furo[2,3-f][1,3]benzodioxole-7-carbonyl]amino}-3,4-dihydro-2H-1-benzopyran-2-yl]pyridine-3-carboxylic acid] was run?
A: Its EC50 is 12 nM.

Q: What about the “Maximum % activity (%)” value [1] of the same compound?
A: Its value is 132%.

Q: What about the EC50 [2] of the same compound?
A: The EC50 was 7.6 nM.

Q: What about the “Maximum % activity (%)” value [2, 3] of the same compound?
A: Its value is 93%.

Q: Which results are given for `C[C@]1(C(=O)Nc2cc(C3CC3)nn(-c3ccc(C(=O)O)cc3)c2=O)COc2cc3c(cc21)OC(F)(F)O3` [Example 32, 4-[3-cyclopropyl-5-{[(7R)-2,2-difluoro-7-methyl-6,7-dihydro-2H-furo[2,3-f][1,3]benzodioxole-7-carbonyl]amino}-6-oxopyridazin-1(6H)-yl]benzoic acid]?
A: EC50 [1]: 880 nM; Maximum % activity (%) [1]: 144%; Maximum % activity (%) ([2]; testing concentration 3 μM): 51%

Q: Which results are given for `C[C@]1(C(=O)Nc2cc3cc(C4(CO)CCC4)n(C[C@@H](O)CO)c3cc2F)COc2cc3c(cc21)OC(F)(F)O3` [Example 134, (7R)—N-{1-[(2R)-2,3-dihydroxypropyl]-6-fluoro-2-[1-(hydroxymethyl)cyclobutyl]-1H-indol-5-yl}-2,2-difluoro-7-methyl-6,7-dihydro-2H-furo[2,3-f][1,3]benzodioxole-7-carboxamide]?
A: EC50 [1]: 480 nM; Maximum % activity (%) [1]: 109%; EC50 [2]: 197 nM; Maximum % activity (%) [2, 3]: 79%

Q: For `COc1ccc2c(c1)O[C@@H](c1ccc(N3C[C@@H](O)[C@H](O)C3)nn1)C[C@H]2NC(=O)[C@@]1(C)COc2cc3c(cc21)OC(F)(F)O3` [Example 251, (7R)—N-[(2R,4R)-2-{6-[(3R,4R)-3,4-dihydroxypyrrolidin-1-yl]pyridazin-3-yl}-7-methoxy-3,4-dihydro-2H-1-benzopyran-4-yl]-2,2-difluoro-7-methyl-6,7-dihydro-2H-furo[2,3-f][1,3]benzodioxole-7-carboxamide], which EC50 [1] is on record?
A: Its EC50 is 30 nM.

Q: And the “Maximum % activity (%)” value [1]?
A: Its value is 128%.

Q: And the EC50 [2]?
A: The EC50 was 5 nM.

Q: And the “Maximum % activity (%)” value [2, 3]?
A: The value was 86%.

Q: What does the source list for `COc1ccc2c(c1)O[C@@H](c1cnc(C(O)CO)cn1)C[C@H]2NC(=O)[C@@]1(C)COc2cc3c(cc21)OC(F)(F)O3` (stereo partly drawn) [Example 175, (7R)—N-{(2R,4R)-2-[5-(1,2-dihydroxyethyl)pyrazin-2-yl]-7-methoxy-3,4-dihydro-2H-1-benzopyran-4-yl}-2,2-difluoro-7-methyl-6,7-dihydro-2H-furo[2,3-f][1,3]benzodioxole-7-carboxamide]?
A: EC50 [1]: 220 nM; Maximum % activity (%) [1]: 139%; EC50 [2]: 43 nM; Maximum % activity (%) [2, 3]: 107%

Q: What does the source list for `C[C@]1(C(=O)N[C@@H]2C[C@H]([C@H]3CC[C@H](C(=O)NCC(O)CO)CC3)Oc3cc(OC(F)(F)F)ccc32)COc2cc3c(cc21)OC(F)(F)O3` (stereo partly drawn) [Example 260, (7R)—N-[(2R,4R)-2-{trans-4-[(2,3-dihydroxypropyl)carbamoyl]cyclohexyl}-7-(trifluoromethoxy)-3,4-dihydro-2H-1-benzopyran-4-yl]-2,2-difluoro-7-methyl-6,7-dihydro-2H-furo[2,3-f][1,3]benzodioxole-7-carboxamide]?
A: EC50 [1]: 130 nM; Maximum % activity (%) [1]: 174%; EC50 [2]: 69 nM; Maximum % activity (%) [2, 3]: 129%

Q: Which EC50 [1] does the source give for `COc1ccc2c(c1)O[C@@H](c1ccc(C(=O)O)cc1)C[C@H]2NC(=O)[C@@]1(C)COc2cc3c(cc21)OC(F)(F)O3` [Example 20, 4-[(2R,4R)-4-{[(7R)-2,2-difluoro-7-methyl-6,7-dihydro-2H-furo[2,3-f][1,3]benzodioxole-7-carbonyl]amino}-7-methoxy-3,4-dihydro-2H-1-benzopyran-2-yl]benzoic acid] here?
A: The EC50 was 30 nM.

Q: What about the “Maximum % activity (%)” value [1] of the same compound?
A: Its value is 150%.

Q: What about the EC50 [2] of the same compound?
A: Its EC50 is 11 nM.

Q: What about the “Maximum % activity (%)” value [2, 3] of the same compound?
A: The value was 98%.

Q: Which EC50 [1] does the source give for `C[C@]1(C(=O)Nc2cc3cc(C4(CO)CCC4)[nH]c3cc2F)COc2cc3c(cc21)OC(F)(F)O3` [Example 172, (7R)-2,2-difluoro-N-{6-fluoro-2-[1-(hydroxymethyl)cyclobutyl]-1H-indol-5-yl}-7-methyl-6,7-dihydro-2H-furo[2,3-f][1,3]benzodioxole-7-carboxamide] here?
A: The EC50 was 950 nM.

Q: And the “Maximum % activity (%)” value [1]?
A: Its value is 210%.

Q: What about the EC50 [2] of the same compound?
A: Its EC50 is 98 nM.

Q: And the “Maximum % activity (%)” value [2, 3]?
A: Its value is 50%.

Q: What does the source list for `COc1ccc2c(c1)OC(c1ccc(OC[C@@H](O)CO)nn1)C[C@H]2NC(=O)[C@@]1(C)COc2cc3c(cc21)OC(F)(F)O3` (stereo partly drawn) [Example 252, (7R)—N-[(4R)-2-{6-[(2S)-2,3-dihydroxypropoxy]pyridazin-3-yl}-7-methoxy-3,4-dihydro-2H-1-benzopyran-4-yl]-2,2-difluoro-7-methyl-6,7-dihydro-2H-furo[2,3-f][1,3]benzodioxole-7-carboxamide]?
A: EC50 [1]: 90 nM; Maximum % activity (%) [1]: 110%; EC50 [2]: 32 nM; Maximum % activity (%) [2, 3]: 106%

Q: What does the source list for `CC1(C)COC(C)(C)c2c1n(C[C@@H](O)CO)c1cc(F)c(NC(=O)[C@@]3(C)COc4cc5c(cc43)OC(F)(F)O5)cc21` [Example 206, (7R)—N-{5-[(2R)-2,3-dihydroxypropyl]-7-fluoro-1,1,4,4-tetramethyl-1,3,4,5-tetrahydropyrano[4,3-b]indol-8-yl}-2,2-difluoro-7-methyl-6,7-dihydro-2H-furo[2,3-f][1,3]benzodioxole-7-carboxamide]?
A: EC50 [1]: 1950 nM; Maximum % activity (%) [1]: 84%; EC50 [2]: 1030 nM; Maximum % activity (%) [2, 3]: 79%

Q: Which EC50 [1] does the source give for `CC(C)(CO)c1cc2cc(NC(=O)[C@@]3(C)COc4cc5c(cc43)OC(F)(F)O5)c(F)cc2n1C[C@@H](O)CC#N` [Example 179, (7R)—N-{1-[(2S)-3-cyano-2-hydroxypropyl]-6-fluoro-2-(1-hydroxy-2-methylpropan-2-yl)-1H-indol-5-yl}-2,2-difluoro-7-methyl-6,7-dihydro-2H-furo[2,3-f][1,3]benzodioxole-7-carboxamide] here?
A: Its EC50 is 280 nM.

Q: What about the “Maximum % activity (%)” value [1] of the same compound?
A: Its value is 108%.

Q: What about the EC50 [2] of the same compound?
A: Its EC50 is 147 nM.

Q: And the “Maximum % activity (%)” value [2, 3]?
A: Its value is 70%.
